According to US6022699A, “Myeloperoxidase assay of endotoxin-induced inflammation” (Alcon Laboratories, Inc., priority 1999, dated 2000):
“Also recorded” adds a separate entry of the source. Values belong to the compound of their own block, whether it stands above or below them.

Tests used:
[1] = molecular target: T1, Human sputum myeloperoxidase (HSMPO) (Homo sapiens, UniProt P05164); assay: Spectrophotometric (460 nm) assay of MPO-catalyzed oxidation of o-DA; type: biochemical
T1 construct: mature light and heavy chains from one precursor
T1 sequence (P05164 165-745): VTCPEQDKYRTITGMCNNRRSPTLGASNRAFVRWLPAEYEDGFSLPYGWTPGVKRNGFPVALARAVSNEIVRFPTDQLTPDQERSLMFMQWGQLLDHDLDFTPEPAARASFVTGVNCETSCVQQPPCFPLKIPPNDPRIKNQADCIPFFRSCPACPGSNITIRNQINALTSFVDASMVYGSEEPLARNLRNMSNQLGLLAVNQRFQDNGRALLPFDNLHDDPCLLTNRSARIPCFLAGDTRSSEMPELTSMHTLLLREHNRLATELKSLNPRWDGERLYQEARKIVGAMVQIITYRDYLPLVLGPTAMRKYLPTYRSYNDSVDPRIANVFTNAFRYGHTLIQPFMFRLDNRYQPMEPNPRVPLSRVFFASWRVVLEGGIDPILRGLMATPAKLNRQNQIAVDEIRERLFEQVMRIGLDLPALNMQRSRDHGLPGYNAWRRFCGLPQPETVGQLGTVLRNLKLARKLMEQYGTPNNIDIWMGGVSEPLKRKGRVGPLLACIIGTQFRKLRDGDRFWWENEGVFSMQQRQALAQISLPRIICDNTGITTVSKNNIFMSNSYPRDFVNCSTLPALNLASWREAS
Protocol: N-ethylmaleimide (NEM), o-DA (3,3'-dimethoxybenzidine dihydrochloride), HTA-Br, LPS (lipopolysaccharide, E. coli 0111:B4), heparin, dexamethasone,histopaque 1083 and histopaque 1119 were obtained from Sigma Chemical Company, St. Louis, Mo. Dextran-100 was a product of Crescent Chemical Company, Hauppauge, N.Y. Hydrogen peroxide (30%) was obtained from J. T. Baker and stored at 4° C. All other chemicals used were of the highest purity available. Human sputum myeloperoxidase (HSMPO) was obtained from Elastin Products Co., Pacific, Mo. The enzyme (2.4 mg solid) was dissolved in 2.4 mL of 50 mM potassium phosphate buffer (pH 6.0), and stored in 0.1 mL aliquots at -20° C., then diluted 10-fold with 50 mM potassium phosphate buffer (pH 6.0) to provide a HSMPO concentration of 0.1 mg/mL.
To evaluate potential assay interference by ASC, conditions were selected which permitted the spectrophotometric assessment of ASC effects on the extent of o-DA oxidation. This was accomplished using sub-saturating concentrations of H2 O2 (37 mM), 1.5 mM o-DA a nd excess enzyme. MPO activity was assayed at room temperature in a final volume of 3.0 mL containing 50 mM potassium phosphate buffer (pH 6.0), 37 mM H2 O2, and 1.5 mM o-DA. Reactions were initiated by addition of 2 mg HSMPO: (a) control reaction, (b) ASC (3.2 mM) added 3.6 minutes after initiation of the reaction, (c) ASC (32 mM) added just prior to the initiation of the reaction and (d) ASC (64 mM) added just prior to the initiation of the reaction.
The effect of GSH on o-DA oxidation by HSMPO was assessed in an analogous fashion. MPO activity was assayed at room temperature in 3.0 mL of 50 mM potassium phosphate (pH 6.0), supplemented with 37 mM H2 O2, and 1.5 mM o-DA. (a) HSMPO (2 mg) was added 2 minutes after addition of NEM (6.6 mM) and GSH (1.65 mM), (b) NEM (6.6 mM) was added 5 minutes prior to addition of HSMPO (2 mg) (c) GSH (3.3 mM) was added 3.5 minutes after initiation of the reaction by addition of HSMPO (2 mg), (d) GSH (0.33 mM) was added just prior to initiation of the reaction with HSMPO (2 mg) with NEM (6.6 mM) added 20 seconds following initiation of the reaction, (e) GSH (0.33 mM) was added just prior to initiation of the reaction with HSMPO (2 mg) with NEM (6.6 mM) added 1.0 minute following initiation of the reaction, and (f) GSH (1.65 mM) was added just prior to initiation of the reaction.

[2] = tested on: PMN infiltrates within the different compartments of the eye; assay: Histopathologic evaluation of PMN infiltrates in eye sections; type: in vivo, Lewis rat; conditions: topical dexamethasone-treated animals
Protocol: Inhibition of PMN influx into ocular tissue of the Lewis rat by dexamethasone was evaluated as follows. Dexamethasone suspensions were prepared in a carbopol ophthalmic suspension vehicle at concentrations of 0.0033%, 0.01%, 0.033%, 0.04% and 0.10%, w/v. A 5 μL aliquot of test drug or vehicle was applied topically to each eye of the experimental animals 24, 20, and 4 hours prior to, at the time of, and 4 and 20 hours after LPS foot pad injection. Twenty-four (24) hours following LPS administration, eyes were enucleated, quickly frozen on dry ice and stored at -70° C. until used for tissue extraction and assessment of MPO activity. Alternatively, eyes were enucleated and fixed in a solution of phosphate buffered (40 mM) formalin (4%), pH 6.0. Eyes were embedded in paraffin and sectioned. Using light microscopy, hematoxylin- and eosin-stained sections were examined for the presence and distribution of PMN infiltrates within the different compartments of the eye. Infiltrates were ranked subjectively on a scale ranging from 0 to 5, where 0=not remarkable, 1=minimal, 2=slight/mild, 3=moderate, 4=moderately severe, and 5=severe/high.

effect on the 460 nm absorbance attained ([1]; ASC 3.2 mM added to control reaction when enzyme catalysis had ceased): little effect
development of absorbance at 460 nm ([1]; ASC 64 mM added just prior to initiation): fully abolished
interference in the spectrophotometric assay of MPO, ASC compared with GSH ([1]; concentration dependent): more effective than GSH
Structure (SMILES): O=C1O[C@H]([C@@H](O)CO)C(O)=C1O [ASC, ascorbic acid]

Structure (SMILES): N[C@@H](CCC(=O)N[C@@H](CS)C(=O)NCC(=O)O)C(=O)O [GSH, glutathione]
increase in 460 nm absorbancy ([1]; GSH 1.65 mM present at the initiation of the MPO reaction): fully prevented
change in absorbancy ([1]; GSH 3.3 mM added to control peroxidase reactions that had ceased): little change in absorbancy

Structure (SMILES): CCN1C(=O)C=CC1=O [NEM, N-ethylmaleimide]
inhibitory effect of GSH ([1]; NEM 6.6 mM added together with GSH 1.65 mM 2 minutes prior to addition of enzyme): fully abolished
effect on MPO activity ([1]; NEM alone (6.6 mM), absence of GSH): does not affect MPO catalysis; also recorded: little effect on MPO activity

Structure (SMILES): C[C@@H]1C[C@H]2[C@@H]3CCC4=CC(=O)C=C[C@]4(C)[C@@]3(F)[C@@H](O)C[C@]2(C)[C@@]1(O)C(=O)CO [dexamethasone]
PMNs in anterior and posterior compartments and associated ocular tissue (histopathology) [2]: dose dependent decline in PMNs
